Earlier results, collected in patent US5807979A, “Synthetic, three-dimensionally stabilized polypeptide mimics of HIV” (The Scripps Research Institute, priority 1995, dated 1998).

Experiments:
malaria = conditions: tested in humans; cited from earlier work
[1] = fraction of the activity of parent EGF; cited from earlier work

Q: With (Asn-Ala-Asn-Pro)3 as the substance, how does the “effectiveness of vaccine in humans” value (malaria) read?
A: only partially effective

Q: For “active fragment of epidermal growth factor (EGF), comprising amino acids 20-31: active fragment of epidermal growth factor (EGF), comprising amino acids 20-31 (CMYIEALDKYAC; Epidermal growth factor; UniProt P01133 990-1001, looked up, fragment)”, which “activity relative to that of the parent molecule” value [1] is on record?
A: about 10^-4
